The values below are quoted from earlier work in US20240226035A1, “Precision Medicine Approach to Treating Parkinson's Disease with a Monoamine Oxidase Inhibitor, an Antioxidant, or Both” (UNIVERSITY OF NORTH TEXAS HEALTH SCIENCE CENTER AT FORT …, priority 2021, published 2024).

Each structure is given as a SMILES string.

The conditions of this series: DATATOP trial.
[1] abbreviates: deprenyl 10 mg/day, PD patients.

Consider `C#CCN(C)[C@H](C)Cc1ccccc1` [deprenyl], for which, for the setting “deprenyl 10 mg/d, after 14 months, trial discontinued and became open-label”, the “effect on reducing PD symptoms” value is given as “positive effects”. Moreover, under setting [1], the “postponing levodopa-related adverse events or extending life” value is “no benefit” and the “time until disability that warranted initiation of levodopa therapy” value is “delayed time until disability that warranted initiation of levodopa therapy”.
